Data reported in US12202805B2, “Process for preparing (5S)-{[2-(4-carboxyphenyl)ethyl] |2-(2-{|3-chloro-4'-(trifluoromethyl)biphenyl-4-yl]methoxy}phenyl)ethyl]aminol-5,6,7,8-tetrahydroquinoline-2-carboxylic acid and its crystalline forms for use as pharmaceutically active compound” (Bayer Aktiengesellschaft, priority 2021, dated 2025).
“And” between values parts separate entries of the source, which are not always exact repeats. Equal entries are not always repeated.

Test system: thromboxane A2 challenged PAH-minipig
Test: Haemodynamics in the anesthetized thromboxane challenged minipig, intratracheal dry powder (PAP, BP)
Format: in vivo, Göttingen Minipigs
Details: for BP (absolute values) / PAP (absolute values): lactose vehicle first, test powder 1.5 mg/4 kg i.t. @90 min, each animal (n=3); for % changes vs. baseline on PAP: each animal
Procedure: Healthy Göttingen Minipigs® Ellegaard (Ellegaard, Denmark) of both sexes and having a weight of 2-6 kg were used. The animals were sedated by i.m. administration of about 25 mg/kg ketamine and about 10 mg/kg azaperone. Anaesthesia was initiated by i.v. administration of about 2 mg/kg ketamine and about 0.3 mg/kg midazolam. Maintenance of anaesthesia was by i.v. administration of about 7.5-30 mg/kg/h ketamine and about 1-4 mg/kg/h midazolam (rate of infusion 1-4 ml/kg/h) and about 150 μg/kg/h pancuronium bromide (for example Pancuronium-Actavis). After intubation, the animals were ventilated by the ventilator at a constant respiratory volume (10-12 ml/kg, 35 breaths/min; Avea®, Viasys Healthcare, USA, or Engström Carestation, GE Healthcare, Freiburg, Germany) such that an end-tidal CO2 concentration of about 5% was achieved. Ventilation was performed with room air, enriched with about 40% oxygen (normoxia). For the measurement of the haemodynamic parameters such as pulmonary arterial pressure (PAP), blood pressure (BP) and heart rate (HR), catheters were inserted into the carotid artery to measure the blood pressure, and a Swan-Ganz® catheter was introduced in a flow-directed manner via the jugular vein into the pulmonary artery. The haemodynamic signals were recorded and evaluated by means of pressure transducers (Combitransducer, B. Braun, Melsungen, Germany)/amplifiers and Ponemah® as data acquisition software.
As reference pure Lactose vehicle was applied in the beginning of each experiment.

[1] = time 0 min, 375 μg/kg i.t., sesquihydrate
[2] = time 10 min, 375 μg/kg i.t., sesquihydrate
[3] = time 20 min, 375 μg/kg i.t., sesquihydrate
[4] = time 20 min, listed as ex. 6e, sesquihydrate
[5] = time 30 min, listed as ex. 6e, sesquihydrate
[6] = time 40 min, listed as ex. 6e, sesquihydrate
[7] = time 50 min, 375 μg/kg i.t., sesquihydrate
[8] = time 50 min, listed as ex. 6e, sesquihydrate
[9] = time 60 min, 375 μg/kg i.t., sesquihydrate
[10] = time 60 min, listed as ex. 6e, sesquihydrate
[11] = time 70 min, 375 μg/kg i.t., sesquihydrate
[12] = time 70 min, listed as ex. 6e, sesquihydrate
[13] = time 80 min, 375 μg/kg i.t., sesquihydrate
[14] = time 80 min, listed as ex. 6e, sesquihydrate
[15] = time 90 min, 375 μg/kg i.t., sesquihydrate
[16] = time 90 min, listed as ex. 6e, sesquihydrate
[17] = time 100 min, 375 μg/kg i.t., sesquihydrate
[18] = time 100 min, listed as ex. 6e, sesquihydrate
[19] = time 110 min, 375 μg/kg i.t., sesquihydrate
[20] = time 110 min, listed as ex. 6e, sesquihydrate
[21] = time 120 min, 375 μg/kg i.t., sesquihydrate
[22] = time 120 min, listed as ex. 6e, sesquihydrate
[23] = time 130 min, listed as ex. 6e, sesquihydrate
[24] = time 140 min, listed as ex. 6e, sesquihydrate

O.O.O.O=C(O)c1ccc(CCN(CCc2ccccc2OCc2ccc(-c3ccc(C(F)(F)F)cc3)cc2Cl)[C@H]2CCCc3nc(C(=O)O)ccc32)cc1.O=C(O)c1ccc(CCN(CCc2ccccc2OCc2ccc(-c3ccc(C(F)(F)F)cc3)cc2Cl)[C@H]2CCCc3nc(C(=O)O)ccc32)cc1 [example 6e, (5S)—{[2-(4-Carboxyphenyl)ethyl][2-(2-{[3-chloro-4′-(trifluoromethyl)biphenyl-4-yl]methoxy}phenyl)-ethyl]amino}-5,6,7,8-tetrahydroquinoline-2-carboxylic acid sesquihydrate]
systemic blood pressure (375 μg/kg i.t., within the last hour of the observation interval): slightly affected | maximal effect achievable in this animal model (i.t. dry powder): maximal effect | time to maximum effect after i.t. application (i.t. dry powder, 1.5 mg/4 kg animal weight): approximately 80 min | effect on PAP and BP (i.t. via PennCentury dry powder insufflator, 1.5 mg/4 kg animal weight): decrease of PAP without any effects on BP | efficacy with regard to PAP reduction as well as systemic BP reduction (micronized hydrates, 1.5 mg/4 kg (=375 μg/kg) i.t.): comparable efficacy | BP (mean) [1]: 99 mmHg and 104 mmHg and 117 mmHg | PAP(mean) [1]: 41.9 mmHg and 37.1 mmHg and 37.5 mmHg | BP (mean) (time 10 min, 375 μg/kg i.t.): 99 mmHg | BP (mean) [2]: 108 mmHg and 119 mmHg | PAP(mean) [2]: 42.0 mmHg and 37.3 mmHg and 38.6 mmHg | BP (mean) (time 20 min, 375 μg/kg i.t.): 99 mmHg | BP (mean) [3]: 109 mmHg and 118 mmHg | PAP(mean) [3]: 41.4 mmHg | BP (absolute values) (time 20 min): 99 mmHg | BP (absolute values) [4]: 107 mmHg and 119 mmHg | PAP (absolute values) [4]: 42.0 mmHg and 36.4 mmHg and 37.5 mmHg | BP (mean) (time 30 min, 375 μg/kg i.t.): 100 mmHg | BP (mean) (time 30 min, 375 μg/kg i.t., sesquihydrate): 107 mmHg and 118 mmHg | BP (absolute values) [5]: 99 mmHg and 104 mmHg and 117 mmHg | PAP (absolute values) [5]: 41.9 mmHg and 37.1 mmHg and 37.5 mmHg | BP (mean) (time 40 min, 375 μg/kg i.t.): 100 mmHg | BP (absolute values) (time 40 min): 99 mmHg | BP (absolute values) [6]: 108 mmHg and 119 mmHg | PAP (absolute values) [6]: 42.0 mmHg and 37.3 mmHg and 38.6 mmHg | BP, % changes vs. prevalues [7]: 101.4% and 98.5% and 100.3% | PAP, % changes vs. prevalues [7]: 98.3% and 96.2% and 101.2% | BP (absolute values) (time 50 min): 99 mmHg | BP (absolute values) [8]: 109 mmHg and 118 mmHg | PAP (absolute values) [8]: 41.4 mmHg and 37.4 mmHg and 39.8 mmHg | BP, % changes vs. prevalues [9]: 102.5% and 100.3% and 99.4% | PAP, % changes vs. prevalues [9]: 97.2% and 99.6% and 101.1% | BP (absolute values) (time 60 min): 100 mmHg | BP (absolute values) [10]: 107 mmHg and 118 mmHg | PAP (absolute values) [10]: 41.4 mmHg and 36.8 mmHg and 41.2 mmHg | BP, % changes vs. prevalues [11]: 99.4% and 96.0% and 98.6% | PAP, % changes vs. prevalues [11]: 97.8% and 97.5% and 98.5% | BP (absolute values) (time 70 min): 100 mmHg | BP (absolute values) [12]: 109 mmHg and 118 mmHg | PAP (absolute values) [12]: 41.0 mmHg and 37.4 mmHg and 41.3 mmHg | % changes vs. baseline on PAP (time 80 min (baseline = 100.0), i.t. dry powder): 100.0% | BP, % changes vs. prevalues [13]: 101.4% and 96.8% and 97.7% | PAP, % changes vs. prevalues [13]: 87.8% and 94.9% and 87.9% | BP (absolute values) [14]: 101 mmHg and 114 mmHg and 119 mmHg | PAP (absolute values) [14]: 40.9 mmHg and 38.1 mmHg and 40.8 mmHg | BP, % changes vs. prevalues [15]: 101.4% and 98.5% and 96.9% | PAP, % changes vs. prevalues [15]: 82.5% and 92.0% and 76.6% | % changes vs. baseline on PAP (time 90 min, baseline 100.0 at 80 min, i.t. dry powder, sesquihydrate): 98.9% and 103.6% and 99.8% | BP (absolute values) (time 90 min): 102 mmHg | BP (absolute values) [16]: 116 mmHg and 118 mmHg | PAP (absolute values) [16]: 40.4 mmHg and 39.5 mmHg and 40.7 mmHg | BP, % changes vs. prevalues [17]: 101.4% and 98.5% and 96.9% | PAP, % changes vs. prevalues [17]: 77.6% and 90.1% and 71.1% | % changes vs. baseline on PAP (time 100 min, baseline 100.0 at 80 min, i.t. dry powder, sesquihydrate): 99.5% and 101.4% and 97.3% | BP (absolute values) (time 100 min): 99 mmHg | BP (absolute values) [18]: 111 mmHg and 117 mmHg | PAP (absolute values) [18]: 40.7 mmHg and 38.7 mmHg and 39.6 mmHg | BP, % changes vs. prevalues [19]: 99.4% and 103.7% and 96.1% | PAP, % changes vs. prevalues [19]: 74.0% and 88.3% and 68.4% | % changes vs. baseline on PAP (time 110 min, baseline 100.0 at 80 min, i.t. dry powder, sesquihydrate): 89.3% and 98.7% and 86.8% | BP (absolute values) [20]: 101 mmHg and 112 mmHg and 116 mmHg | PAP (absolute values) [20]: 36.5 mmHg and 37.6 mmHg and 35.4 mmHg | BP, % changes vs. prevalues [21]: 99.4% | PAP, % changes vs. prevalues [21]: 72.8% and 73.1% and 66.2% | % changes vs. baseline on PAP (time 120 min, baseline 100.0 at 80 min, i.t. dry powder, sesquihydrate): 84.0% and 95.6% and 75.7% | BP (absolute values) [22]: 101 mmHg and 114 mmHg and 115 mmHg | PAP (absolute values) [22]: 34.3 mmHg and 36.4 mmHg and 30.8 mmHg | PAP, % changes vs. prevalues (time 130 min, 375 μg/kg i.t., sesquihydrate): 69.8% | % changes vs. baseline on PAP (time 130 min, baseline 100.0 at 80 min, i.t. dry powder, sesquihydrate): 78.9% and 93.7% and 70.2% | BP (absolute values) [23]: 101 mmHg and 114 mmHg and 115 mmHg | PAP (absolute values) [23]: 32.3 mmHg and 35.7 mmHg and 28.6 mmHg | % changes vs. baseline on PAP (time 140 min, baseline 100.0 at 80 min, i.t. dry powder, sesquihydrate): 75.2% and 91.8% and 67.5% | BP (absolute values) [24]: 99 mmHg and 120 mmHg and 114 mmHg | PAP (absolute values) [24]: 30.8 mmHg and 35.0 mmHg and 27.5 mmHg | % changes vs. baseline on PAP (time 150 min, baseline 100.0 at 80 min, i.t. dry powder, sesquihydrate): 74.0% and 76.0% and 65.4%
